Experimental data: US4141986A, “Antibiotics 890A2 and 890A5” (Merck & Co., Inc., priority 1977, dated 1979)

System: Vibrio percolans ATCC 8461
Assay: Assay procedure for 890 Assay Units, disc-diffusion with cephaloridine standard
Assay type: cell-based
Procedure: A conventional agar plate disc-diffusion method is employed using Vibrio percolans ATCC 8461 as tester organism. Cephaloridine is employed as a standard. Plates containing Vibrio percolans ATCC 8461 are prepared as follows. A culture of Vibrio percolans ATCC 8461 is incubated in nutrient broth-yeast extract overnight on a rotary shaker at 28° C. and then diluted to a density of 60% transmittance at 660 nm. A 33.2 ml. portion of this diluted culture is added to 1 liter of a medium composed of nutrient agar plus 0.2% yeast extract maintained at 46° C. The inoculated agar-containing medium is poured into 100 × 15 mm. plastic-petri dishes, 10 ml. per dish, chilled, and maintained at 2°-4° C. for up to 5 days before use.
The concentration of cephaloridine which is equivalent to 1 unit/ml. of 890A is deterined by assay on plates prepared as above, but containing 5 ml. of inoculated medium per plate, as follows. Four concentrations of cephaloridine constitute the standard -- 3.12, 6.25, 12.5 and 25 mcg per ml. with the 12.5 mcg per ml. as a reference solution. The zone diameters on a 5 ml. plate for the standard are as follows:
A unit is defined as the amount of antibiotic per ml. producing a 25 mm. zone of inhibition on a 5 ml. plate as described in section I above. Therefore, in this assay a concentration of 2.5 mcg per ml. of cephaloridine is considered equivalent to 1 unit of 890A per ml. Since the slope of the line for cephaloridine is 4.0 calculations of the potency of a sample are made using a slope of 4.0.

SMILES: O=C(Cc1cccs1)N[C@@H]1C(=O)N2C(C(=O)[O-])=C(C[n+]3ccccc3)CS[C@H]12 [cephaloridine, Cephaloridine]
- concentration considered equivalent to 1 unit of 890A per ml. (25 mm. zone of inhibition on a 5 ml. plate): 2.5 mcg per ml.
- zone of inhibition at 3.12 µg/mL (Comamonas terrigena, ATCC8461, 3.12 mcg./ml., 5 ml. plate, read-out: Zone Diameter): 16.8 mm
- zone of inhibition at 6.25 µg/mL (Comamonas terrigena, ATCC8461, 6.25 mcg./ml., 5 ml. plate, read-out: Zone Diameter): 22.3 mm
- zone of inhibition at 12.5 µg/mL (Comamonas terrigena, ATCC8461, 12.5 mcg./ml., 5 ml. plate, read-out: Zone Diameter): 25 mm
- zone of inhibition at 25 µg/mL (Comamonas terrigena, ATCC8461, 25 mcg./ml., 5 ml. plate, read-out: Zone Diameter): 29.6 mm
- slope of the line (zone diameter against concentration of the standard): 4.0
